Experimental data as given in ChEMBL document CHEMBL1143353, “Pyrazolo[1,5-a]-1,3,5-triazine as a purine bioisostere: access to potent cyclin-dependent kinase inhibitor (R)-roscovitine analogue” (J Med Chem, 2009).
pIC50: −log10 of the molar value.

Experiments:
SH-SY5Y = assay: Antiproliferative activity against human SH-SY5Y cells after 48 hrs by MTS reduction assay; format: functional, cell-based
HEK293 = assay: Antiproliferative activity against human HEK293 cells after 48 hrs by MTS reduction assay; format: cell-based; settings: HEK293, 48 h
cells [1] = settings: Homo sapiens, HL-60, 72 h
Description: Antiproliferative activity against human HL60(TB) cells after 72 hrs by ViaLight assay

cells [2] = settings: Homo sapiens, RPMI8266, 72 h
Description: Antiproliferative activity against human RPMI8266 cells after 72 hrs by ViaLight assay

SR = assay: cells; settings: Homo sapiens, 72 h
Description: Antiproliferative activity against human SR cells after 72 hrs by ViaLight assay

EKVX = assay: cells; settings: Homo sapiens, 72 h
Description: Antiproliferative activity against human EKVX cells after 72 hrs by ViaLight assay

HOP-62 = assay: cells; settings: Homo sapiens, HOP-62, 72 h
Description: Antiproliferative activity against human HOP62 cells after 72 hrs by ViaLight assay

NCI-H226 = assay: cells; settings: Homo sapiens, NCI-H226, 72 h
Description: Antiproliferative activity against human NCI-H226 cells after 72 hrs by ViaLight assay

NCI-H23 = assay: cells; settings: Homo sapiens, NCI-H23, 72 h
Description: Antiproliferative activity against human NCI-H23 cells after 72 hrs by ViaLight assay

NCI-H460 = assay: cells; settings: Homo sapiens, NCI-H460, 72 h
Description: Antiproliferative activity against human NCI-H460 cells after 72 hrs by ViaLight assay

COLO 205 = assay: cells; settings: Homo sapiens, COLO 205, 72 h
Description: Antiproliferative activity against human COLO205 cells after 72 hrs by ViaLight assay

HCC 2998 = assay: cells; settings: Homo sapiens, HCC 2998, 72 h
Description: Antiproliferative activity against human HCC2998 cells after 72 hrs by ViaLight assay

HCT-15 = assay: cells; settings: Homo sapiens, HCT-15, 72 h
Description: Antiproliferative activity against human HCT15 cells after 72 hrs by ViaLight assay

SF-539 = assay: cells; settings: Homo sapiens, SF-539, 72 h
Description: Antiproliferative activity against human SF539 cells after 72 hrs by ViaLight assay

SNB-19 = assay: cells; settings: Homo sapiens, SNB-19, 72 h
Description: Antiproliferative activity against human SNB19 cells after 72 hrs by ViaLight assay

SNB-75 = assay: cells; settings: Homo sapiens, SNB-75, 72 h
Description: Antiproliferative activity against human SNB75 cells after 72 hrs by ViaLight assay

LOX IMVI = assay: cells; settings: Homo sapiens, 72 h
Description: Antiproliferative activity against human LOXIMVI cells after 72 hrs by ViaLight assay

M14 = assay: cells; settings: Homo sapiens, M14, 72 h
Description: Antiproliferative activity against human M14 cells after 72 hrs by ViaLight assay

SK-MEL-2 = assay: cells; settings: Homo sapiens, SK-MEL-2, 72 h
Description: Antiproliferative activity against human SK-MEL-2 cells after 72 hrs by ViaLight assay

SK-MEL-5 = assay: cells; settings: Homo sapiens, SK-MEL-5, 72 h
Description: Antiproliferative activity against human SK-MEL-5 cells after 72 hrs by ViaLight assay

OVCAR-4 = assay: cells; settings: Homo sapiens, OVCAR-4, 72 h
Description: Antiproliferative activity against human OVCAR4 cells after 72 hrs by ViaLight assay

OVCAR-5 = assay: cells; settings: Homo sapiens, OVCAR-5, 72 h
Description: Antiproliferative activity against human OVCAR5 cells after 72 hrs by ViaLight assay

786-0 = assay: cells; settings: Homo sapiens, 786-0, 72 h
Description: Antiproliferative activity against human 786-0 cells after 72 hrs by ViaLight assay

A498 = assay: cells; settings: Homo sapiens, A498, 72 h
Description: Antiproliferative activity against human A498 cells after 72 hrs by ViaLight assay

ACHN = assay: cells; settings: Homo sapiens, 72 h
Description: Antiproliferative activity against human ACHN cells after 72 hrs by ViaLight assay

CAKI-1 = assay: cells; settings: Homo sapiens, CAKI-1, 72 h
Description: Antiproliferative activity against human Caki1 cells after 72 hrs by ViaLight assay

RXF 393 = assay: cells; settings: Homo sapiens, RXF 393, 72 h
Description: Antiproliferative activity against human RFX393 cells after 72 hrs by ViaLight assay

TK-10 = assay: cells; settings: Homo sapiens, TK-10, 72 h
Description: Antiproliferative activity against human TK10 cells after 72 hrs by ViaLight assay

DU-145 = assay: cells; settings: Homo sapiens, DU-145, 72 h
Description: Antiproliferative activity against human DU145 cells after 72 hrs by ViaLight assay

T47D = assay: cells; settings: Homo sapiens, 72 h
Description: Antiproliferative activity against human T47D cells after 72 hrs by ViaLight assay

Structure (SMILES): CC[C@H](CO)Nc1nc(NCc2ccccc2)c2ncn(C(C)C)c2n1 [SELICICLIB]
- pIC50 (SH-SY5Y): 4.79
- pIC50 (HEK293): 4.31
- GI50 (cells [1]): 19.9 µM
- GI50 (cells [1]; read-out: pGI50 (converted)): 20 µM
- GI50 (cells [2]): 25.1 µM
- GI50 (cells [2]; read-out: pGI50 (converted)): 25.1 µM
- GI50 (SR): 5.01 µM
- GI50 (SR; read-out: pGI50 (converted)): 5.01 µM
- GI50 (EKVX): 19.9 µM
- TGI (EKVX): 50.1 µM
- GI50 (EKVX; read-out: pGI50 (converted)): 20 µM
- TGI (EKVX; read-out: pTGI): 50.1 µM
- GI50 (HOP-62): 25.1 µM
- GI50 (HOP-62; read-out: pGI50 (converted)): 25.1 µM
- GI50 (NCI-H226): 19.9 µM
- GI50 (NCI-H226; read-out: pGI50 (converted)): 20 µM
- GI50 (NCI-H23): 12.6 µM
- TGI (NCI-H23): 50.1 µM
- GI50 (NCI-H23; read-out: pGI50 (converted)): 12.6 µM
- TGI (NCI-H23; read-out: pTGI): 50.1 µM
- GI50 (NCI-H460): 25.1 µM
- GI50 (NCI-H460; read-out: pGI50 (converted)): 25.1 µM
- GI50 (COLO 205): 12.6 µM
- TGI (COLO 205): 31.6 µM
- GI50 (COLO 205; read-out: pGI50 (converted)): 12.6 µM
- TGI (COLO 205; read-out: pTGI): 31.6 µM
- GI50 (HCC 2998): 31.6 µM
- GI50 (HCC 2998; read-out: pGI50 (converted)): 31.6 µM
- GI50 (HCT-15): 19.9 µM
- GI50 (HCT-15; read-out: pGI50 (converted)): 20 µM
- GI50 (SF-539): 15.8 µM
- GI50 (SF-539; read-out: pGI50 (converted)): 15.8 µM
- GI50 (SNB-19; read-out: pGI50 (converted)): 12.6 µM
- TGI (SNB-19; read-out: pTGI): 31.6 µM
- GI50 (SNB-75): 12.6 µM
- TGI (SNB-75): 31.6 µM
- GI50 (SNB-75; read-out: pGI50 (converted)): 50.1 µM
- GI50 (LOX IMVI): 12.6 µM
- GI50 (LOX IMVI; read-out: pGI50 (converted)): 20 µM
- TGI (LOX IMVI; read-out: pTGI): 50.1 µM
- GI50 (M14): 25.1 µM
- GI50 (M14; read-out: pGI50 (converted)): 12.6 µM
- TGI (M14; read-out: pTGI): 50.1 µM
- GI50 (SK-MEL-2): 15.8 µM
- TGI (SK-MEL-2): 39.8 µM
- GI50 (SK-MEL-2; read-out: pGI50 (converted)): 15.8 µM
- TGI (SK-MEL-2; read-out: pTGI): 39.8 µM
- GI50 (SK-MEL-5): 10 µM
- TGI (SK-MEL-5): 31.6 µM
- GI50 (SK-MEL-5; read-out: pGI50 (converted)): 10 µM
- TGI (SK-MEL-5; read-out: pTGI): 31.6 µM
- GI50 (OVCAR-4): 31.6 µM
- GI50 (OVCAR-4; read-out: pGI50 (converted)): 31.6 µM
- TGI (OVCAR-4; read-out: pTGI): 63.1 µM
- GI50 (OVCAR-5): 39.8 µM
- GI50 (OVCAR-5; read-out: pGI50 (converted)): 39.8 µM
- GI50 (786-0): 25.1 µM
- GI50 (A498): 50.1 µM
- GI50 (A498; read-out: pGI50 (converted)): 25.1 µM
- GI50 (ACHN): 12.6 µM
- GI50 (ACHN; read-out: pGI50 (converted)): 50.1 µM
- GI50 (CAKI-1): 6.3 µM
- GI50 (CAKI-1; read-out: pGI50 (converted)): 12.6 µM
- GI50 (RXF 393): 5 µM
- GI50 (RXF 393; read-out: pGI50 (converted)): 6.31 µM
- GI50 (TK-10): 63.1 µM
- GI50 (TK-10; read-out: pGI50 (converted)): 5.01 µM
- GI50 (DU-145): 15.8 µM
- GI50 (DU-145; read-out: pGI50 (converted)): 20 µM
- GI50 (T47D): 16.8 µM
- GI50 (T47D; read-out: pGI50 (converted)): 39.8 µM
